The source made the active and inactive calls.
Experiments:
[1] = molecular target: T1, Short transient receptor potential channel 4 (Mus musculus, UniProt Q9QUQ5); test: calcium entry via TRPC4 opening agents – cell-based, HEK293 TRPC4/mu-opioid, Fluo-4 calcium, dose response (AID 434937); type: functional
T1 sequence (Q9QUQ5 whole entry): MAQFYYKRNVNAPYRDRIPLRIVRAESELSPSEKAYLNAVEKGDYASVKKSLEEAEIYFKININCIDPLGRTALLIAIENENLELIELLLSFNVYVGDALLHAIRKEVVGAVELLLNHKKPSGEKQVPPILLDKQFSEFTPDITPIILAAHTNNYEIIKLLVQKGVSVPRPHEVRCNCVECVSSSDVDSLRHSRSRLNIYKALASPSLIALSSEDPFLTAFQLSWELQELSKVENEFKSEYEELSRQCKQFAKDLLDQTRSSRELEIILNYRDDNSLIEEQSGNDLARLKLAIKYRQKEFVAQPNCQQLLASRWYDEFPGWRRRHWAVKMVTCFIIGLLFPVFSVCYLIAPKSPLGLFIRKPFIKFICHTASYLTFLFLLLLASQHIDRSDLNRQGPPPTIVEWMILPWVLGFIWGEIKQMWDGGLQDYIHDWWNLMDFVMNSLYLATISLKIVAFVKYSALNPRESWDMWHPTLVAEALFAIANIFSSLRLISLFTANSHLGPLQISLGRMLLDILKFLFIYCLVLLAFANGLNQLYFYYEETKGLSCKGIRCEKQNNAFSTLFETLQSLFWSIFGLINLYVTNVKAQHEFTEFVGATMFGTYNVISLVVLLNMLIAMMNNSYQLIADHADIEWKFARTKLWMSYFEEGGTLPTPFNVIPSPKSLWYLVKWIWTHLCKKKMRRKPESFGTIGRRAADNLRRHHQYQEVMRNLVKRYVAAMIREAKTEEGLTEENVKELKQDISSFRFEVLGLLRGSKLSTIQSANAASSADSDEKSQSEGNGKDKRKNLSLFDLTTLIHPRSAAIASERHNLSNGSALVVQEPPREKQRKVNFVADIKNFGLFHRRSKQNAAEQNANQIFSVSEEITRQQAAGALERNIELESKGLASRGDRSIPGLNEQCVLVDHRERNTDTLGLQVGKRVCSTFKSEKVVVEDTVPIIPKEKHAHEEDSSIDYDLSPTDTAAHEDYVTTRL

[2] = HepG2 cell cytotoxicity, dose response, cytotoxicity control for non-replicating M. tuberculosis project (AID 489018); type: functional; conditions: Mycobacterium tuberculosis
[3] = THP-1 cell cytotoxicity, dose response, cytotoxicity control for non-replicating M. tuberculosis project (AID 489025); type: functional
[4] = Vero E6 cell cytotoxicity, dose response, cytotoxicity control for non-replicating M. tuberculosis project, secondary assay (AID 492998); type: functional, VeroE6; conditions: Vero C1008
[5] = cells; type: functional
[6] = molecular target: Voltage-dependent T-type calcium channel subunit alpha-1H (Homo sapiens, UniProt O95180); type: functional;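 further: channel activity triggered by adding a high calcium stimulation buffer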
[7] = molecular target: Polyadenylate-binding protein 1 (Homo sapiens, UniProt P11940); test: blockers of PABP interaction with poly(A) – biochemical, fluorescence polarization, […] (AID 2014)
[8] = molecular target: DNA dC->dU-editing enzyme APOBEC-3A (Homo sapiens, UniProt P31941); test: Dose Response confirmation of small molecule APOBEC3A DNA Deaminase Inhibitors via a fluorescence-based single-stranded DNA deaminase assay. [Related pubchem assays (depositor defined):AID493011, AID493024]; type: functional
[9] = molecular target: DNA dC->dU-editing enzyme APOBEC-3G (Homo sapiens, UniProt Q9HC16); type: functional;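 further: Dose-response counterscreen measuring inhibition of APOBEC3G DNA deaminase activity, run while confirming APOBEC3A inhibitors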
[10] = molecular target: Eukaryotic translation initiation factor 4H (Homo sapiens, UniProt Q15056); test: eIF4H binding inhibition – biochemical, uHTS, fluorescence polarization, translation initiation inhibitor project, primary screen (AID 2012)
[11] = system: HeLa; test: ATP-based viability loss in HeLa cells – cell-based, CellTiter-Glo luminescence, cherry-pick samples, cytotoxicity control for MITF activator project, dose response (AID 540259); type: functional; conditions: Homo sapiens
[12] = molecular target: Beta-2 adrenergic receptor (Homo sapiens, UniProt P07550); test: ADRB2 activation measured by internalization – cell-based, FAP fluorogen, flow cytometry, cherry pick 1, dose response (AID 588763); type: functional
[13] = molecular target: T2, Hexokinase (Trypanosoma brucei, UniProt Q38C41); test: Confirmation assay for inhibitors of Trypanosoma brucei hexokinase 1-Analogue-first series. [Related pubchem assays (depositor defined):AID1430, AID1632, AID2516, AID2560, AID2579, AID2600, AID449725, AID492951]; type: functional
T2 sequence (Q38C41 whole entry): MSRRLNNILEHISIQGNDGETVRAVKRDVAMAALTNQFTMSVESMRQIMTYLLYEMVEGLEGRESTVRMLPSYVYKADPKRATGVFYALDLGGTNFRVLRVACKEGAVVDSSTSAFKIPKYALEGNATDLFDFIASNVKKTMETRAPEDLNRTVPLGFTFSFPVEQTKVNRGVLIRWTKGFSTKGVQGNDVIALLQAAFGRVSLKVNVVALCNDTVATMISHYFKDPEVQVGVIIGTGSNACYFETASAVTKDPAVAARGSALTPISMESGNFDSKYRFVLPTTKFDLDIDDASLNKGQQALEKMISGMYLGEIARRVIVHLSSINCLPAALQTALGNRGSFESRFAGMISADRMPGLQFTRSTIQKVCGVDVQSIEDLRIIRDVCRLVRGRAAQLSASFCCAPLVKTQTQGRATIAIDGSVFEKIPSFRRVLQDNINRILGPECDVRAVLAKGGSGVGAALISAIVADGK

[14] = Luminescence Cell-Based Dose Retest to Confirm Inhibitors of Cancer Stem Cells. [Related pubchem assays (depositor defined):AID2717, AID2721]; type: functional; conditions: Homo sapiens

Polyadenylate-binding protein 1, sequence (P11940 whole entry): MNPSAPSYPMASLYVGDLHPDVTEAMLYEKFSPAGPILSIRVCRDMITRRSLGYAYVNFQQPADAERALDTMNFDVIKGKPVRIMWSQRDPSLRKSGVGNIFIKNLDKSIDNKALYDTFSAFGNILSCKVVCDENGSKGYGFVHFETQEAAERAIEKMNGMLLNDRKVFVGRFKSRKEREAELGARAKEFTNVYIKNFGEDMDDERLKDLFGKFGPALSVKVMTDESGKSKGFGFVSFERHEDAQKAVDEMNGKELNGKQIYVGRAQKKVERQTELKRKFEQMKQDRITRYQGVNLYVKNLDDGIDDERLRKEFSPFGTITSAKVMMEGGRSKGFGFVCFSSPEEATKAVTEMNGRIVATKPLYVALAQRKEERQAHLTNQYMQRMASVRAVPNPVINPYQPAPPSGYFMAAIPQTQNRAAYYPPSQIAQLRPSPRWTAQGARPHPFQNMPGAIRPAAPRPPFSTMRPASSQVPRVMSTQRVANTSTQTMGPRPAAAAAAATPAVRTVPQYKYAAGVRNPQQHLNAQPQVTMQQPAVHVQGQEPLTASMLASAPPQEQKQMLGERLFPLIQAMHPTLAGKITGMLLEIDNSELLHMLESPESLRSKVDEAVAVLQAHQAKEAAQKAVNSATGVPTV
DNA dC->dU-editing enzyme APOBEC-3G, sequence (Q9HC16 whole entry): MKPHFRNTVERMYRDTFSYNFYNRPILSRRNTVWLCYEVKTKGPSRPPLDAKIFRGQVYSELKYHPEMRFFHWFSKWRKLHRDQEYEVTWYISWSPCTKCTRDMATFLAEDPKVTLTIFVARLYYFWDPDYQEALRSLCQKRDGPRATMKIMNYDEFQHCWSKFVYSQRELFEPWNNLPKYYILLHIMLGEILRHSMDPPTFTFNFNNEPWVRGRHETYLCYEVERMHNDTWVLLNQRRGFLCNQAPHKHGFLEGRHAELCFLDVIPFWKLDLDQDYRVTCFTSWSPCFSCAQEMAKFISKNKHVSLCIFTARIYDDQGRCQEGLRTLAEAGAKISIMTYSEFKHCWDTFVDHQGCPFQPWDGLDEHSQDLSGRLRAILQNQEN
Voltage-dependent T-type calcium channel subunit alpha-1H, sequence (O95180 whole entry): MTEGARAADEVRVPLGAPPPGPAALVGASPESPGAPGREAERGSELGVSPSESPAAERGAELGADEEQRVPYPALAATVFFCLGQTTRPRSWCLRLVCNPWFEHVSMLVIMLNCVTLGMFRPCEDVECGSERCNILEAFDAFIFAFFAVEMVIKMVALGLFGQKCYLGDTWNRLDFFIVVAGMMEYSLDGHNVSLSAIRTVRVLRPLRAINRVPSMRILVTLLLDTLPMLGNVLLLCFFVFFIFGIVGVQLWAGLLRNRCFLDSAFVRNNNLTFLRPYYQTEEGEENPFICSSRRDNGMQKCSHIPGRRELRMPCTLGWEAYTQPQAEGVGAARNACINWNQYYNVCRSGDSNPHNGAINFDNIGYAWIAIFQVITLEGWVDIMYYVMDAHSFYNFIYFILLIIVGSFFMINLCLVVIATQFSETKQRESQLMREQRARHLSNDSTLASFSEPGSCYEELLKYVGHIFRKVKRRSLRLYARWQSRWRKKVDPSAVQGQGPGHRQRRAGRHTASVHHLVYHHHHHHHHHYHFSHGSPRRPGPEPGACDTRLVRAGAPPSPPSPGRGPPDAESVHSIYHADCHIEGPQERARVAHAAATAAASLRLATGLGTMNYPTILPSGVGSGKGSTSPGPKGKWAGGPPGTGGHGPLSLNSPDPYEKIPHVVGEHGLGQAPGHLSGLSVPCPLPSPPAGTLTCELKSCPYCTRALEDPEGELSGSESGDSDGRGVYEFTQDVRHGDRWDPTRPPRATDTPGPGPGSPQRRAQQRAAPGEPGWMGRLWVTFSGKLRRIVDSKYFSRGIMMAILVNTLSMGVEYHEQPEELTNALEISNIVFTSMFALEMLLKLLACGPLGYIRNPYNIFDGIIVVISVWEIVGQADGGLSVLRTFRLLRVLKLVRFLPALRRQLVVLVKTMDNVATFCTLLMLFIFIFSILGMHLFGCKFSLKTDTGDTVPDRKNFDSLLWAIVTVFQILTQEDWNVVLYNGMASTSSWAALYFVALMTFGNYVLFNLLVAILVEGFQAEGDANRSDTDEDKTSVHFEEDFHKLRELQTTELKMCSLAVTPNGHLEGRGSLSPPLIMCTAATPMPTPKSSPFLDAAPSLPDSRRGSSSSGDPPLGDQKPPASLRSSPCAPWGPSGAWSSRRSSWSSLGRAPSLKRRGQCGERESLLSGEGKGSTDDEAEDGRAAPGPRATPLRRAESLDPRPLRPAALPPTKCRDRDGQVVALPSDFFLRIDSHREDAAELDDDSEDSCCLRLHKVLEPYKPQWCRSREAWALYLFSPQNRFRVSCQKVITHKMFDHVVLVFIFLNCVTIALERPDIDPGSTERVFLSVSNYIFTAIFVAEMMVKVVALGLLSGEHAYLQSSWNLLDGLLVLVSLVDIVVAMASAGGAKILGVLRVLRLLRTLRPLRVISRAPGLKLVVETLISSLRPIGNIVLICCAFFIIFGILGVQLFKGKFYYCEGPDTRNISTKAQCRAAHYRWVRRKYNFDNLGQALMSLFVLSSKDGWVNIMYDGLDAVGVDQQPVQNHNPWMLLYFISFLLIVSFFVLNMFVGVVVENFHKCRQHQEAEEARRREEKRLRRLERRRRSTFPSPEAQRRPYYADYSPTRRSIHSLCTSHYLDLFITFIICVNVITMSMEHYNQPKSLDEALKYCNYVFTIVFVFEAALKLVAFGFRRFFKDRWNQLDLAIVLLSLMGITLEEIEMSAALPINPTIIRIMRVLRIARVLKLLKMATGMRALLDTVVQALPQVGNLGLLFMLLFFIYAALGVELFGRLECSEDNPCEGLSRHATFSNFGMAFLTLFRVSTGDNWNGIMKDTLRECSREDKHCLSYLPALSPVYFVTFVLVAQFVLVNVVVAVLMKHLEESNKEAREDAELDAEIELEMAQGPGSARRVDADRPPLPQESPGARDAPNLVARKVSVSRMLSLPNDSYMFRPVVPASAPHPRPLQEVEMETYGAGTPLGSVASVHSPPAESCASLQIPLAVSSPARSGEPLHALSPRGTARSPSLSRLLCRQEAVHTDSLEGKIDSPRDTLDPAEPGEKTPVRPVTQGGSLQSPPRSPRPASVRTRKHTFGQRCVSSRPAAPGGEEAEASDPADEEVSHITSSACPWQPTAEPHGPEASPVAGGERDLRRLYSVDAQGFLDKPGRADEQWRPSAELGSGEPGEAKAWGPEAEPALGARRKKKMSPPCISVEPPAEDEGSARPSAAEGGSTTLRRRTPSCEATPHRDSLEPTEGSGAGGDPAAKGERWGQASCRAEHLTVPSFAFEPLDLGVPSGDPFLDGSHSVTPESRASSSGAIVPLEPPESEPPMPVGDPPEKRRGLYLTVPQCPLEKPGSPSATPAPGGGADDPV
DNA dC->dU-editing enzyme APOBEC-3A, sequence (P31941 whole entry): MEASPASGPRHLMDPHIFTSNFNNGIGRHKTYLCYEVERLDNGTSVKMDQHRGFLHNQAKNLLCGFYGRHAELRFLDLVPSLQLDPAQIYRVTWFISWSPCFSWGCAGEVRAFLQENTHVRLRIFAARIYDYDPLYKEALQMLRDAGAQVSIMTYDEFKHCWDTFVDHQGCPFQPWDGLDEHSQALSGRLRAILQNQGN
Beta-2 adrenergic receptor, sequence (P07550 whole entry): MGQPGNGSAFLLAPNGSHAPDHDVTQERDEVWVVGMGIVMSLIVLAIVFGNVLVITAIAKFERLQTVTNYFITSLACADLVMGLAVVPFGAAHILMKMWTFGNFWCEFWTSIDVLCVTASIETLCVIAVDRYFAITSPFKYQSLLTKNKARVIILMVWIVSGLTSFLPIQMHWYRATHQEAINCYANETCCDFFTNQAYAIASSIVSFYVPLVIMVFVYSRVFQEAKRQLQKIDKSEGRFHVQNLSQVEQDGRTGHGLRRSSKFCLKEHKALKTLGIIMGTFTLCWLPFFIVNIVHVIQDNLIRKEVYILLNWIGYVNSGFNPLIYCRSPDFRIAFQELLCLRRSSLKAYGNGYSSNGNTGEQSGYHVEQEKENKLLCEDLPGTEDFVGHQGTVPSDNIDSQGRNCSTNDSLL

SMILES: CCn1c(=O)cc(OCC(=O)NCCCN2CC(C)CC(C)C2)c2ccccc21 (configuration not stated)
- EC50 [1]: 0.473 µM (active)

SMILES: CN(C)c1c2ccccc2nc2c(F)c(F)c(F)c(F)c12
- CC50 [2]: > 20 µM (active)
- CC50 [3]: 22.9 µM (active)
- CC50 [4]: > 20 µM (active)
- IC50 [5]: 17.7 µM (active)

SMILES: O=C(NCc1ccc2c(c1)OCO2)c1ccc(CN2CCc3ccccc3C2)cc1
- EC50 [6]: 7.5 µM (active)

SMILES: COc1cc(/C=C/c2cccc[n+]2C)ccc1OCC(=O)Nc1ccccc1C
- IC50 [7]: 3.83 µM (active)
- IC50 [8]: 1.56 µM (active)
- IC50 [9]: 1.29 µM (active)
- IC50 [10]: > 100 µM (inactive)

SMILES: COc1ccccc1NC(=O)c1cc[n+](C)cc1
- IC50 [7]: 5.63 µM (active)
- IC50 [8]: 2.48 µM (active)
- IC50 [9]: 2.3 µM (active)
- IC50 [10]: 90.8 µM (active)

SMILES: COc1ccc(/C=C2\C(=O)NCC(=O)N2C)cc1
- IC50 [7]: 6.16 µM (active)
- IC50 [8]: 2.81 µM (active)
- IC50 [9]: 6.99 µM (active)
- IC50 [10]: > 100 µM (inactive)

SMILES: O=C(Nc1ccc2c(c1)CCC2)C1CCCN(c2ncccn2)C1 (configuration not stated)
- AC50 [11]: 104 µM (active)

SMILES: CCCNC(=O)Nc1nc2ccccc2s1
- AC50 [11]: 191 µM (active)

SMILES: Cc1ccc(CNC(=O)C[S+]([O-])Cc2nc(-c3ccccc3C)oc2C)cc1 (configuration not stated)
- EC50 [6]: 6 µM (active)

SMILES: CC1CC(C)CN(CCCNC(=O)c2csc3c2CCCCC3)C1 (configuration not stated)
- EC50 [1]: 4.73 µM (active)

SMILES: Cc1ccc(NC(=O)C[S+]([O-])Cc2nc(-c3ccc(C)cc3)oc2C)cc1 (configuration not stated)
- EC50 [6]: 2.45 µM (active)

SMILES: Cc1ccc(Sc2cc(N3CCOCC3)nc(-c3ccccc3)n2)cc1
- EC50 [12]: 4.82 µM (active)

SMILES: CC(CCc1ccccc1)NC(=O)CN1CCN(Cc2ccc(Cl)cc2)C1=O (configuration not stated)
- EC50 [6]: 4.5 µM (active)

SMILES: COc1ccc(C(C)=O)cc1COc1ccc(Cl)cc1Cl
- EC50 [12]: 2.67 µM (active)

SMILES: Cc1ccc(C(=O)Nc2cc(Cl)ccc2C(=O)O)c(C)c1
- IC50 [13]: > 25 µM (inactive)

SMILES: N#Cc1ccccc1NC(=O)Cn1sc2ccccc2c1=O
- IC50 [13]: 7.21 µM (active)

SMILES: COc1cc(OC)cc(-c2cc3cc(F)ccc3cn2)c1
- AC50 [11]: 50.6 µM (active)

SMILES: O=C(Cn1sc2ccccc2c1=O)N1CCOCC1
- IC50 [13]: > 25 µM (inactive)

SMILES: Brc1ccc(/C=N/Nc2ccccc2)cc1
- AC50 [14]: 3.98 µM (active)
- AC50 [11]: 65.5 µM (active)

Source: ChEMBL document CHEMBL1201862, “PubChem BioAssay data set” (2004)
